Patent publication US12264156B2, “Compounds and pharmaceutical compositions thereof for the treatment of diseases” (GALAPAGOS NV, priority 2018, dated 2025)
One block for each molecule: values may come before it.

Columns and labels:
SIK1 = target: T1, SIK1 (Homo sapiens, UniProt P57059); assay: ADP-Glo kinase assay, SIK1; assay type: biochemical; settings: ADP-Glo SIK kinase assay
T1 construct: purchased Carna Biosciences 02-131
Method in brief: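 ADP-Glo, RT throughout. Enz/substrate + ATP, 120 min; ADP-Glo reagent 40 min (ATP depletion); detection reagent 30 min; luminescence read. Neg ctrl 1% DMSO, pos ctrl 10 μM staurosporine, final concs.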

SIK2 = target: T2, SIK2 (Homo sapiens, UniProt Q9H0K1); assay: ADP-Glo kinase assay, SIK2; assay type: biochemical; settings: ADP-Glo SIK kinase assay
T2 construct: purchased ThermoFisher Scientific PV4792
Method in brief: (§1)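 Wells with 1% DMSO or 10 μM staurosporine (final) define the control window. The kinase reaction with substrate and ATP runs 120 min at RT, followed by ADP-Glo detection: ATP depletion (40 min) and ADP-derived luminescence (30 min).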

SIK3 = target: T3, SIK3 (Homo sapiens, UniProt Q9Y2K2); assay: ADP-Glo kinase assay, SIK3; assay type: biochemical; settings: ADP-Glo SIK kinase assay
T3 construct: purchased SignalChem S12-11G-100
Method in brief: as §1

[1] = system: LPS triggered IL-10 secretion in monocyte-derived macrophages (MdM); assay: MdM assay: LPS-triggered IL-10 (ELISA); assay type: cell-based, human; settings: LPS 200 ng/mL, supernatant after 2 h, maximal fold change vs LPS only
Protocol: SIK inhibition inhibits TNFα and increases IL-10 release in LPS triggered monocyte-derived macrophages (MdM) and dendritic […] al. 2012; Sundberg et al. 2014; Ozanne et al. 2015). This assay evaluates illustrative compounds of the invention for their inhibition of LPS-induced TNFα and LPS triggered IL-10 secretion in monocyte-derived macrophages. PBMCs are isolated from human blood samples (buffycoats). The buffy coat is aseptically transferred into a 50 mL Falcon tube, and diluted 1/2 in PBS. Falcon tubes are filled with 20 mL LymphoprepTM, on top of which 25 mL of the buffy coat is carefully added, tubes are centrifuged for 35 min at 400 g in temperature controlled centrifuge, without brake, at 25° C. PBMCs are aspirated from the white interface layer between sample and LymphoprepTM. PBMCs are washed five times in PBS. Cells are resuspended in RPMI 1640 complete medium supplemented with 10% FBS, 1% P/S, and cell density is determined using a hematologic analyzer (Sysmex XS-500i). PBMCs are centrifuged at 300×g for 10 min and resuspended at a density of 1.0*10^7 cells/80 μL Miltenyi buffer (PBS, pH 7.4, 1% FBS, 2 mM EDTA). Starting from this point of the protocol all steps are performed on ice. 20 μL of CD14+ micro-beads are added per 1.0*10^7 cells, the tube is mixed and incubated for 15 min in the fridge at 4° C. Cell suspension volume is adjusted to total volume of 100 mL using Miltenyi buffer, mixed gently and subsequently centrifuged for 10 min at 300×g. Supernantant is discarded and cell pellet is resuspended in 12 mL of Miltenyi buffer. Four LS columns are placed in the MACS Separator (magnet) from Miltenyi Biotec, and are prewet by rinsing with 3 mL of MACS buffer per column. Three mL of cell suspension is added onto the column (max 1*10^8 of labelled cells/column), and columns are subsequently washed 3 times with 3 mL of Miltenyi buffer. The columns are removed from the magnets, and 5 mL of Miltenyi buffer are added to the column to flush out the CD14+ fraction by pushing the plunger into the column. The flushed fractions are collected in a fresh 50 mL Falcon and volume is adjusted to 30 mL using Miltenyi buffer, cells are centrifuged for 10 min at 300×g. The obtained cell pellet is resuspended in 10 mL RPMI w/o FBS, and cell density is determined using a hematologic analyser (Sysmex XS-500i). 100 000 cells are seeded per well of a 96-well plate for differentiation to MdM in RPMI 1640 medium supplemented with 10% FBS, 1% P/S and 100 ng/mL rhM-CSF. On day 5 the medium is refreshed with 100 μL RPMI 1640 medium supplemented with 10% FBS, 1% P/S and 100 ng/mL rhM-CSF. On day 10, MdMs are triggered and compound is added. A compound dilution plate is made in 100% DMSO by 3-fold dilution of 10 mM stock solution. An intermediate dilution plate (10× final concentration) is made by diluting the compound dilution plate 50-fold in RPMI medium. Medium is carefully removed from cell plates using multichannel pipette, and replaced by 80 μL fresh medium. 10 μL of the 10× final concentration compound is added to the cells and incubated for 1 hour at 37° C. before addition of trigger. No trigger conditions/trigger conditions are spiked with equal final DMSO concentrations of 0.2% DMSO. 10 μL of 10×LPS (final conc. 200 ng/mL) solution are added to all wells except for the 'no trigger wells' where 10 μL medium is added. Supernatant is collected after 2 h (IL-10 determination) and after 20 h (TNFα determination) of LPS triggering. […]

T1 sequence (P57059 whole entry): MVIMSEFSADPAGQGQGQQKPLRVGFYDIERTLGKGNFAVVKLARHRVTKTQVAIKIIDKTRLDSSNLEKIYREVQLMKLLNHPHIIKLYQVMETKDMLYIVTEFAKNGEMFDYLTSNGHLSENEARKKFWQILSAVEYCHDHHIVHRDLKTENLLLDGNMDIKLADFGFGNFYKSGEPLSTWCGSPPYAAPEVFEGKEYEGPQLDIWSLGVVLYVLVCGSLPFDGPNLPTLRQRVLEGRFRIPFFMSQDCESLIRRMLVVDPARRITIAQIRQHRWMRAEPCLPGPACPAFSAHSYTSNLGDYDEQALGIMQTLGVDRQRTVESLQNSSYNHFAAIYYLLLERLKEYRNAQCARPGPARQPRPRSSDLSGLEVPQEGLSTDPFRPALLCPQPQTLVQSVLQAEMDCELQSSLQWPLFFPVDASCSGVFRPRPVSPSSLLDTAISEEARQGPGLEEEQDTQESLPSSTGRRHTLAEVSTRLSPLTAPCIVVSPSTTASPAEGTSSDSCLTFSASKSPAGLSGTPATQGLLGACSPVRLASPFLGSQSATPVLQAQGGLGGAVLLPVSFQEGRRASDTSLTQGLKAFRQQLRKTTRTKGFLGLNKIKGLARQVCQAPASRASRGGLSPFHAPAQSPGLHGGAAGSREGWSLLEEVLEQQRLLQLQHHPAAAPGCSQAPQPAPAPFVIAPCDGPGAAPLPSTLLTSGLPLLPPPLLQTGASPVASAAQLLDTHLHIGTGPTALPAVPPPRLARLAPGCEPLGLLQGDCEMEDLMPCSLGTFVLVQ
T3 sequence (Q9Y2K2 whole entry): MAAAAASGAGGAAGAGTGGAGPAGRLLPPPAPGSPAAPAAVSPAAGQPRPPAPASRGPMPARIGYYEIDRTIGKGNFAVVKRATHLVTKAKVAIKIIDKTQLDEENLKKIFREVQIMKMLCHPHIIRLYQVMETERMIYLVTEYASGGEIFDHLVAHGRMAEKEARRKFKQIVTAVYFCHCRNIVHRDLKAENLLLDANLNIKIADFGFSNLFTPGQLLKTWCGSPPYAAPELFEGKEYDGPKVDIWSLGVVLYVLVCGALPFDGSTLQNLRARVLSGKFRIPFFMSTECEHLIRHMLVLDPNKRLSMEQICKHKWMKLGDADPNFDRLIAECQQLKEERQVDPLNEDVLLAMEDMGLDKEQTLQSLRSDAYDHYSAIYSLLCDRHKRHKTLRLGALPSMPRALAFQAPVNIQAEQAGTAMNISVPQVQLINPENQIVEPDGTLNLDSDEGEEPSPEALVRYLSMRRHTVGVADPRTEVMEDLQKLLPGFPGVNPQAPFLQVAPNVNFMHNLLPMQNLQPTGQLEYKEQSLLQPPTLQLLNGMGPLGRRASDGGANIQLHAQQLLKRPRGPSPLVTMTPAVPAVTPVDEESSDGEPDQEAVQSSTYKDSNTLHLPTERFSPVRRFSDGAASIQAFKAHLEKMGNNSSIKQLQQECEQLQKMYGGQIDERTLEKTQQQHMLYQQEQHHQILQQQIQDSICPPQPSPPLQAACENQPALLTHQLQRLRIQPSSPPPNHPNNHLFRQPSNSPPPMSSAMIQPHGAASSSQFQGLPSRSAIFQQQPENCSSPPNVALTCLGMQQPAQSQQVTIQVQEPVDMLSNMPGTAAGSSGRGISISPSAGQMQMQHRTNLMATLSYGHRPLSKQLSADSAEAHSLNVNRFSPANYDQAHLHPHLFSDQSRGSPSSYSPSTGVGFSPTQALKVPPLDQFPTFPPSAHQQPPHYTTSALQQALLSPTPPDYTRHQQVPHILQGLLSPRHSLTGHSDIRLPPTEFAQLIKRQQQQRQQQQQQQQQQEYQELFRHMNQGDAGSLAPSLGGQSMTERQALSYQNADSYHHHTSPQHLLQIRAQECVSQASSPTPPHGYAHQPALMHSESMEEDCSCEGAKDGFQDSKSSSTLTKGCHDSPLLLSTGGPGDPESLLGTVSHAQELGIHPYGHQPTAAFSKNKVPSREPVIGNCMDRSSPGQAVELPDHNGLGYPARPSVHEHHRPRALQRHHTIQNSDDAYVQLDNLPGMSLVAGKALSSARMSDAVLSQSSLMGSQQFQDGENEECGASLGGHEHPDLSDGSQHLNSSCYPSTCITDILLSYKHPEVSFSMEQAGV
T2 sequence (Q9H0K1 whole entry): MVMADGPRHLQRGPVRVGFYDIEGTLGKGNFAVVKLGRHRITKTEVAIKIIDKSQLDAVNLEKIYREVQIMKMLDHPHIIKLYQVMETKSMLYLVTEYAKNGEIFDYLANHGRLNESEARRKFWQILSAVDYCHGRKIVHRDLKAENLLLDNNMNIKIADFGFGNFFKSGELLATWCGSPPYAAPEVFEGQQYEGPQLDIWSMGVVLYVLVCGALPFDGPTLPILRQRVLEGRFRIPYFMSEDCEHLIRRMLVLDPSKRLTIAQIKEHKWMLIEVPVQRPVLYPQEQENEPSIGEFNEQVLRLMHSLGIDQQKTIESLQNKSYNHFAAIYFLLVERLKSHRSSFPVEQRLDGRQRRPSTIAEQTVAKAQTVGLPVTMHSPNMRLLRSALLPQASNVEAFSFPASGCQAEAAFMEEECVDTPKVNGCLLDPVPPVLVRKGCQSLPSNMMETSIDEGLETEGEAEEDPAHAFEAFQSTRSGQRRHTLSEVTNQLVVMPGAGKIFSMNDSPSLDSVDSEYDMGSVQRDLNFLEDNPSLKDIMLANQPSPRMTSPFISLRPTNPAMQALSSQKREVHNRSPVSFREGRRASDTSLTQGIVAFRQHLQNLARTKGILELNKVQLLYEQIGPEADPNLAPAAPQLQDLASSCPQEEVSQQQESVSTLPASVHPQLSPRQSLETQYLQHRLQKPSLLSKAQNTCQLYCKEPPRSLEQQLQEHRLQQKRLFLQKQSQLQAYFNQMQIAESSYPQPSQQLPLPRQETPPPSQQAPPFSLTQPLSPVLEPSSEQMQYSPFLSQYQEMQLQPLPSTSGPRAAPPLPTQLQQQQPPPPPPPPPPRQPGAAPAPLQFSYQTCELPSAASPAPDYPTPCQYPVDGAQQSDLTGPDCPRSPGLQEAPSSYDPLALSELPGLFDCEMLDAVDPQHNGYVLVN

SMILES: COc1cc(-c2cnc3cc(OCCN(C)C)ccn23)cc2c1C(=O)N(CC(F)(F)F)CC2 [Cpd 18, 6-[7-[2-(dimethylamino)ethoxy]imidazo[1,2-a]pyridin-3-yl]-8-methoxy-2-(2,2,2-trifluoroethyl)-3,4-dihydroisoquinolin-1-one]
IC50 (SIK1): > 500 nM
IC50 (SIK2): 0.01 to 10 nM
IC50 (SIK3): 10 to 100 nM
IL-10 FCmax median [1]: ++ (>1.5-4.5)

SMILES: COc1cc(-c2cnc3cc(OCCC4CCCN4C)ccn23)cc(OC(F)F)c1C(=O)NC1CC1 (centres unmarked) [compound 17, N-cyclopropyl-2-(difluoromethoxy)-6-methoxy-4-[7-[2-(1-methylpyrrolidin-2-yl)ethoxy]imidazo[1,2-a]pyridin-3-yl]benzamide]
IC50 (SIK1): 10 to 100 nM
IC50 (SIK2): 0.01 to 10 nM
IC50 (SIK3): 0.01 to 10 nM
IL-10 FCmax median [1]: ++ (>1.5-4.5)

SMILES: COc1cc(-c2cnc3cc(OCCN4CCCCC4)ccn23)cc(OC(F)F)c1C(=O)NC1CC1 [compound 10, N-cyclopropyl-2-(difluoromethoxy)-6-methoxy-4-[7-[2-(1-piperidyl)ethoxy]imidazo [1,2-a]pyridin-3-yl]benzamide]
IC50 (SIK1): 10 to 100 nM
IC50 (SIK2): 0.01 to 10 nM
IC50 (SIK3): 0.01 to 10 nM
IL-10 FCmax median [1]: ++ (>1.5-4.5)

SMILES: COc1cc(-c2cnc3cc(OCC4(F)CN(C)C4)ccn23)cc2c1C(=O)N(CC(F)(F)F)CC2 [compound 252, 6-[7-[(3-fluoro-1-methyl-azetidin-3-yl)methoxy]imidazo[1,2-a]pyridin-3-yl]-8-methoxy-2-(2,2,2-trifluoroethyl)-3,4-dihydro isoquinolin-1-one]
IC50 (SIK1): 100 to 500 nM
IC50 (SIK2): 0.01 to 10 nM
IC50 (SIK3): 0.01 to 10 nM
IL-10 FCmax median [1]: ++ (>1.5-4.5)

SMILES: COc1cc(-c2cnc3cc(OCc4ccnn4C)ccn23)cc(OC(F)F)c1C(=O)NC1CC1 [compound 44, N-cyclopropyl-2-(difluoromethoxy)-6-methoxy-4-[7-[(2-methylpyrazol-3-yl)methoxy]imidazo[1,2-a]pyridin-3-yl] benzamide]
IC50 (SIK1): 10 to 100 nM
IC50 (SIK2): 0.01 to 10 nM
IC50 (SIK3): 0.01 to 10 nM
IL-10 FCmax median [1]: + (≤1.5)

SMILES: COc1cc(-c2cnc3cc(OCCC4CCCN4C)ccn23)cc2c1C(=O)N(CC(F)(F)F)CC2 (centres unmarked) [Cpd 122, 8-methoxy-6-[7-[2-(1-methylpyrrolidin-2-yl)ethoxy]imidazo[1,2-a]pyridin-3-yl]-2-(2,2,2-trifluoroethyl)-3,4-dihydroisoquinolin-1-one]
IC50 (SIK1): 100 to 500 nM
IC50 (SIK2): 0.01 to 10 nM
IC50 (SIK3): 0.01 to 10 nM
IL-10 FCmax median [1]: ++ (>1.5-4.5)

SMILES: CCN(CC)CCOc1ccn2c(-c3cc(OC)c(C(=O)NC4CC4)c(OC(F)F)c3)cnc2c1 [compound 107, N-cyclopropyl-4-[7-[2-(diethylamino)ethoxy]imidazo[1,2-a]pyridin-3-yl]-2-(difluoromethoxy)-6-methoxy-benzamide]
IC50 (SIK1): 100 to 500 nM
IC50 (SIK2): 0.01 to 10 nM
IC50 (SIK3): 0.01 to 10 nM
IL-10 FCmax median [1]: + (≤1.5)

SMILES: COc1cc(-c2cnc3cc(OCCCN4CC(O)C4)ccn23)cc(OC(F)F)c1C(=O)NC1CC1 [Cpd 286, N-cyclopropyl-2-(difluoromethoxy)-4-[7-[3-(3-hydroxyazetidin-1-yl)propoxy]imidazo[1,2-a]pyridin-3-yl]-6-methoxy-benzamide]
IC50 (SIK1): 10 to 100 nM
IC50 (SIK2): 0.01 to 10 nM
IC50 (SIK3): 0.01 to 10 nM
IL-10 FCmax median [1]: ++ (>1.5-4.5)

SMILES: COc1cc(-c2cnc3cc(OCc4nncn4C)ccn23)cc(OC(F)F)c1C(=O)NC1CC1 [compound 227, N-cyclopropyl-2-(difluoromethoxy)-6-methoxy-4-[7-[(4-methyl-1,2,4-triazol-3-yl)methoxy]imidazo[1,2-a]pyridin-3-yl]benzamide]
IC50 (SIK1): 100 to 500 nM
IC50 (SIK2): 0.01 to 10 nM
IC50 (SIK3): 0.01 to 10 nM
IL-10 FCmax median [1]: ++ (>1.5-4.5)

The next lines start with results.

IC50 (SIK1): 100 to 500 nM
IC50 (SIK2): 0.01 to 10 nM
IC50 (SIK3): 0.01 to 10 nM
SMILES: COc1cc(-c2cnc3cc(OC[C@@H]4COCCO4)ccn23)cc2c1C(=O)N(CC(F)(F)F)CC2 [compound 225, 6-[7-[[(2S)-1,4-dioxan-2-yl]methoxy]imidazo[1,2-a]pyridin-3-yl]-8-methoxy-2-(2,2,2-trifluoroethyl)-3,4-dihydroisoquinolin-1-one]
IL-10 FCmax median [1]: ++ (>1.5-4.5)

IC50 (SIK1): 10 to 100 nM
IC50 (SIK2): 0.01 to 10 nM
IC50 (SIK3): 0.01 to 10 nM
SMILES: COc1cc(-c2cnc3cc(OCC(O)CN4CCCCC4)ccn23)cc(OC(F)F)c1C(=O)NC1CC1 (centres unmarked) [Cpd 321, N-cyclopropyl-2-(difluoromethoxy)-4-[7-[2-hydroxy-3-(1-piperidyl)propoxy]imidazo [1,2-a]pyridin-3-yl]-6-methoxy-benzamide]
IL-10 FCmax median [1]: ++ (>1.5-4.5)

IC50 (SIK1): 100 to 500 nM
IC50 (SIK2): 10 to 100 nM
IC50 (SIK3): 0.01 to 10 nM
SMILES: COc1cc(-c2cnc3cc(OCCN4CCOC[C@@H]4C)ccn23)cc2c1C(=O)N(CC(F)(F)F)CC2 [Cpd 257, 8-methoxy-6-[7-[2-[(3S)-3-methylmorpholin-4-yl]ethoxy]imidazo[1,2-a]pyridin-3-yl]-2-(2,2,2-trifluoroethyl)-3,4-dihydroisoquinolin-1-one]
IL-10 FCmax median [1]: ++ (>1.5-4.5)

IC50 (SIK1): 100 to 500 nM
IC50 (SIK2): 0.01 to 10 nM
IC50 (SIK3): 0.01 to 10 nM
SMILES: COc1cc(-c2cnc3cc(OCc4cnco4)ccn23)cc2c1C(=O)N(CC(F)(F)F)CC2 [compound 126, 8-methoxy-6-[7-(oxazol-5-ylmethoxy)imidazo[1,2-a]pyridin-3-yl]-2-(2,2,2-trifluoroethyl)-3,4-dihydroisoquinolin-1-one]
IL-10 FCmax median [1]: + (≤1.5)

IC50 (SIK1): 10 to 100 nM
IC50 (SIK2): 0.01 to 10 nM
IC50 (SIK3): 0.01 to 10 nM
SMILES: CCNCCOc1ccn2c(-c3cc(OC)c(C(=O)NC4CC4)c(OC(F)F)c3)cnc2c1 [compound 37, N-cyclopropyl-2-(difluoromethoxy)-4-[7-[2-(ethylamino)ethoxy]imidazo[1,2-a]pyridin-3-yl]-6-methoxy-benzamide]
IL-10 FCmax median [1]: ++ (>1.5-4.5)

IC50 (SIK1): 100 to 500 nM
IC50 (SIK2): 0.01 to 10 nM
IC50 (SIK3): 0.01 to 10 nM
SMILES: COc1cc(-c2cnc3cc(OCC4CCO4)ccn23)cc2c1C(=O)N(CC(F)(F)F)CC2 (centres unmarked) [compound 125, 8-methoxy-6-[7-(oxetan-2-ylmethoxy)imidazo[1,2-a]pyridin-3-yl]-2-(2,2,2-trifluoroethyl)-3,4-dihydroisoquinolin-1-one]
IL-10 FCmax median [1]: ++ (>1.5-4.5)

IC50 (SIK1): 100 to 500 nM
IC50 (SIK2): 0.01 to 10 nM
IC50 (SIK3): 0.01 to 10 nM
SMILES: COc1cc(-c2cnc3cc(OCC4CCCCN4C)ccn23)cc(OC(F)F)c1C(=O)NC1CC1 (centres unmarked) [compound 23, N-cyclopropyl-2-(difluoromethoxy)-6-methoxy-4-[7-[(1-methyl-2-piperidyl)methoxy]imidazo[1,2-a]pyridin-3-yl]benzamide]
IL-10 FCmax median [1]: ++ (>1.5-4.5)

IC50 (SIK1): 100 to 500 nM
IC50 (SIK2): 0.01 to 10 nM
IC50 (SIK3): 0.01 to 10 nM
SMILES: COc1cc(-c2cnc3cc(OC[C@H]4COCCO4)ccn23)cc2c1C(=O)N(CC(F)F)CC2 [compound 219, 2-(2,2-difluoroethyl)-6-[7-[[(2R)-1,4-dioxan-2-yl]methoxy]imidazo[1,2-a]pyridin-3-yl]-8-methoxy-3,4-dihydroisoquinolin-1-one]
IL-10 FCmax median [1]: ++ (>1.5-4.5)
